Assay in all cases: DTP human tumour cell line panel, 48 h
The test system of experiment [1] is DLD-1 colon.
Experiment [2] relates to DMS 114 small cell lung.
The test system of experiment [3] is DMS 273 small cell lung.
The subject of experiment [4] is KM20L2 colon.
Experiment [5] concerns LXFL 529 NSCLC.
Experiment [6] relates to RXF-631 renal.
Experiment [7] deals with XF 498 CNS.
Experiment [8] deals with SNB-78 CNS.
The subject of experiment [9] is MDA-N.

Structures are written as SMILES. Where “and” joins values, the source holds several entries; their conditions need not be identical. Identical values can stand only once.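 Compound exposure: 48 hours, 5 concentrations, 96-well plates. At the GI50, growth is halved. The concentration for full growth arrest is given as TGI.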

One may read the TGI as the concentration giving total growth inhibition. As to `Cn1nc(-c2ccccc2)c2c(/C=C/c3ccc(Cl)cc3)onc2c1=O`, the TGI in [1] is > 100 µM; in experiment [2], > 100 µM; in experiment [3], > 100 µM; in [4] it was 69.5 µM; in experiment [5] it was > 100 µM; in experiment [6] it was > 100 µM. Further, the TGI in [7] was determined as 43.6 µM.
With `O=C1c2cccc([N+](=O)[O-])c2C(=O)c2nccnc21`, the TGI in experiment [1] is 11.4 µM; in experiment [2], 2.3 µM; in [3] it was 12.3 µM; in experiment [4], 6.16 µM; in [8], 7.38 µM.
What is called GI50 is the concentration that inhibits growth by half. For `C=C1C[C@@H](O)[C@@H](Br)C(C)(C)[C@]12CCC(C)(Br)C(Cl)C2` (some centres undefined), in [9], the GI50 is 17.7 µM; the TGI was > 50 µM and 36.2 µM.
For the compound `O=C(CN(Cc1ccccc1)Cc1ccccc1)N1CCc2c([nH]c3ccccc23)C1c1cccnc1` (centres undefined), the TGI was > 100 µM in experiment [1]; 72.8 µM in [2]; 82.8 µM in experiment [3]; 25.5 µM in experiment [4]; > 100 µM in [5]; > 100 µM in experiment [8]. Also, the TGI in [7] was 65.8 µM.
Take `COC(=O)C(=O)C(C#N)c1cccc(Cl)c1` (centres undefined): the TGI in [1], in experiment [3], in [4], in experiment [5], in experiment [8] and in experiment [7] was > 100 µM each time.
In the case of `CC12CCCC(C#N)(C1)OC2=O` (centres undefined), the TGI in [1], in [3], in experiment [4], in experiment [5], in experiment [6] and in [8] was > 100 µM in each case. Moreover, the TGI in experiment [7] was > 100 µM.
Take `Cc1cc2nc3c(=O)[nH]c(=O)nc-3n(CC(O)C(O)C(O)CO)c2cc1N` (centres undefined): the TGI in experiment [2], in experiment [3], in experiment [5], in [6] and in experiment [8] was > 100 µM in each case.
Take `CCC1(OC(=O)CNC)C(=O)OCc2c1cc1n(c2=O)Cc2cc3ccccc3nc2-1` (centres undefined): the concentration for total growth inhibition (TGI) was 26.8 µM in [1]; < 0.0144 µM in [3]; 2.05 µM in experiment [4]; 3.64 µM in [5]; 0.386 µM in experiment [9]; 0.0575 µM in experiment [6]. Moreover, the TGI in experiment [8] was > 86.9 µM.
Regarding `N.N.N.N.N.N#Cc1nn[n-]n1.[Cl-].[Co+3]`, the GI50 in experiment [1], in experiment [3], in [4], in experiment [5] and in experiment [8] was > 100 µM each time. Further, the TGI in experiment [1], in experiment [3], in [4], in [5] and in experiment [8] was > 100 µM in each case.
`O=C1C(Cl)=C(Cl)C(=O)N1c1ccccc1Cl`: the TGI in experiment [1] was > 94.7 µM; in experiment [2], > 100 µM; in experiment [3], > 100 µM; in experiment [4], > 100 µM; in [5], > 86.3 µM; in [8] it was > 100 µM. In addition, the TGI in experiment [7] is > 100 µM.
Consider `C/C=C(\C)c1cc(=O)c2c(C)cc3c(c2o1)C(OC)(OC(C)=O)c1c(O)c(C2CC(C)(N(C)C)C(OC(C)=O)C(C)O2)cc(C2CC(N(C)C)C(OC(C)=O)C(C)O2)c1C3=O` (centres undefined), for which, in experiment [9], the total growth inhibition concentration (TGI) came out at 4.71 µM.
For the compound `CN(C)CCCOc1ccc(/C=C2/CCC/C(=C/c3ccc(OCCCN(C)C)cc3)C2=O)cc1`, the concentration for total growth inhibition (TGI) worked out at 3.21 µM in experiment [1]; 3.11 µM in experiment [2]; 2.96 µM in experiment [3]; 0.537 µM in experiment [4]; 7.12 µM in experiment [5]; 9.06 µM in experiment [8].
Consider `COc1cccc(N2C(=O)/C(=C/c3ccc(N(CCC#N)CCC#N)cc3)N=C2c2cc([N+](=O)[O-])ccc2Cl)c1`, for which the concentration for total growth inhibition (TGI) in [1], in [2], in experiment [3], in experiment [4], in [5] and in experiment [6] was > 100 µM in each case. Besides, the TGI in experiment [8] was > 100 µM.
Consider `O=C(CCC(=O)Nc1ccc(Cl)cc1)CC(=O)c1ccc2ccccc2c1`, for which the TGI in [1], in [2], in [3], in [4], in experiment [5] and in experiment [6] was > 100 µM throughout. In [8], the TGI is > 100 µM.
Turning to `CCOC(=O)NC(=O)c1cn(CCCCCCCCCCC(=O)NCCCN2CCN(CCCNC(=O)CCCCCCCCCCn3cc(C(=O)NC(=O)OCC)c(=O)[nH]c3=O)CC2)c(=O)[nH]c1=O`, the TGI in [1], in experiment [2], in experiment [3], in experiment [4], in experiment [5] and in experiment [8] was > 100 µM throughout. Besides, the TGI in [7] is > 100 µM.
Take `O=C(Nc1ccccc1)n1cc(-c2ccccn2)c(N2CCOCC2)n1`: the TGI is > 100 µM in [1]; > 100 µM in experiment [2]; 42.1 µM in experiment [3]; 8.69 µM in experiment [4]; > 100 µM in [5]; > 100 µM in experiment [8]. Moreover, the TGI in [7] was > 100 µM.
Consider `O=C(Nc1ccn(C2CC(I)C(COC(c3ccccc3)(c3ccccc3)c3ccccc3)O2)c(=O)n1)c1ccccc1` (centres undefined), for which the TGI in [9] was determined as 14.6 µM.
Same read-out and setting: to `COC(=O)CC1C2(C)C3=C(C)C(c4ccoc4)CC3OC2C2OC(=O)C3(C)C=CC(=O)C1(C)C23` (centres undefined) belongs 2.93 µM.
`COC(=O)C(=NNc1ccccc1[N+](=O)[O-])C(=O)OC`: the TGI in [3], in experiment [4], in experiment [5] and in experiment [7] was > 100 µM throughout.

Values taken from PubChem BioAssay (NCI).
